The NIST ThermoML archive (doi:10.1021/je034253u)
Numbers after ± are expanded uncertainties.

Assay: excess molar enthalpy (molar enthalpy of mixing); xn = mol fraction of the nth substance listed
Conditions: Liquid, Flow calorimetry

With `CC1CO1` (stereo not drawn) [methyloxirane] + CCCC(C)C the excess molar enthalpy (323.15 K, 1140 kPa, x1 = 0.0895) was 0.404 ± 0.005 kJ/mol, the excess molar enthalpy (323.15 K, 1140 kPa, x1 = 0.1719) was 0.702 ± 0.007 kJ/mol and the excess molar enthalpy (323.15 K, 1140 kPa, x1 = 0.2479) was 0.92 ± 0.008 kJ/mol. It also gave an excess molar enthalpy (323.15 K, 1140 kPa, x1 = 0.3184) of 1.066 ± 0.009 kJ/mol, an excess molar enthalpy (323.15 K, 1140 kPa, x1 = 0.3838) of 1.164 ± 0.01 kJ/mol and an excess molar enthalpy (323.15 K, 1140 kPa, x1 = 0.4447) of 1.217 ± 0.01 kJ/mol. For the same compound, the excess molar enthalpy (323.15 K, 1140 kPa, x1 = 0.5015) was 1.24 ± 0.01 kJ/mol, the excess molar enthalpy (323.15 K, 1140 kPa, x1 = 0.5547) was 1.232 ± 0.01 kJ/mol and the excess molar enthalpy (323.15 K, 1140 kPa, x1 = 0.6045) was 1.202 ± 0.01 kJ/mol. The excess molar enthalpy (323.15 K, 1140 kPa, x1 = 0.6514) was 1.156 ± 0.01 kJ/mol, the excess molar enthalpy (323.15 K, 1140 kPa, x1 = 0.6954) was 1.084 ± 0.009 kJ/mol and the excess molar enthalpy (323.15 K, 1140 kPa, x1 = 0.737) was 1.003 ± 0.009 kJ/mol. The excess molar enthalpy (323.15 K, 1140 kPa, x1 = 0.7763) was 0.911 ± 0.008 kJ/mol, the excess molar enthalpy (323.15 K, 1140 kPa, x1 = 0.8134) was 0.805 ± 0.008 kJ/mol and the excess molar enthalpy (323.15 K, 1140 kPa, x1 = 0.8486) was 0.691 ± 0.007 kJ/mol. It also gave an excess molar enthalpy (323.15 K, 1140 kPa, x1 = 0.882) of 0.564 ± 0.006 kJ/mol, an excess molar enthalpy (323.15 K, 1140 kPa, x1 = 0.9137) of 0.431 ± 0.006 kJ/mol and an excess molar enthalpy (323.15 K, 1140 kPa, x1 = 0.9439) of 0.289 ± 0.005 kJ/mol. For the same compound, the excess molar enthalpy (323.15 K, 1140 kPa, x1 = 0.9726) was 0.139 ± 0.005 kJ/mol.
For `FC(F)C(F)(F)F` [pentafluoroethane] + FCF, the excess molar enthalpy (308.15 K, 5130 kPa, x2 = 0.088) was 0.025 ± 0.004 kJ/mol, the excess molar enthalpy (308.15 K, 5130 kPa, x2 = 0.1692) was 0.05 ± 0.004 kJ/mol and the excess molar enthalpy (308.15 K, 5130 kPa, x2 = 0.2444) was 0.073 ± 0.004 kJ/mol. It also gave an excess molar enthalpy (308.15 K, 5130 kPa, x2 = 0.3142) of 0.095 ± 0.004 kJ/mol, an excess molar enthalpy (308.15 K, 5130 kPa, x2 = 0.3792) of 0.114 ± 0.004 kJ/mol and an excess molar enthalpy (308.15 K, 5130 kPa, x2 = 0.4399) of 0.129 ± 0.004 kJ/mol. For the same compound, the excess molar enthalpy (308.15 K, 5130 kPa, x2 = 0.4967) was 0.141 ± 0.004 kJ/mol, the excess molar enthalpy (308.15 K, 5130 kPa, x2 = 0.5499) was 0.15 ± 0.004 kJ/mol and the excess molar enthalpy (308.15 K, 5130 kPa, x2 = 0.5999) was 0.155 ± 0.004 kJ/mol. It also gave an excess molar enthalpy (308.15 K, 5130 kPa, x2 = 0.647) of 0.157 ± 0.004 kJ/mol, an excess molar enthalpy (308.15 K, 5130 kPa, x2 = 0.6913) of 0.155 ± 0.004 kJ/mol and an excess molar enthalpy (308.15 K, 5130 kPa, x2 = 0.7332) of 0.15 ± 0.004 kJ/mol. For the same compound, the excess molar enthalpy (308.15 K, 5130 kPa, x2 = 0.7729) was 0.142 ± 0.004 kJ/mol, the excess molar enthalpy (308.15 K, 5130 kPa, x2 = 0.8105) was 0.13 ± 0.004 kJ/mol and the excess molar enthalpy (308.15 K, 5130 kPa, x2 = 0.8461) was 0.115 ± 0.004 kJ/mol. For the same compound, the excess molar enthalpy (308.15 K, 5130 kPa, x2 = 0.88) was 0.097 ± 0.004 kJ/mol, the excess molar enthalpy (308.15 K, 5130 kPa, x2 = 0.9122) was 0.076 ± 0.004 kJ/mol and the excess molar enthalpy (308.15 K, 5130 kPa, x2 = 0.9428) was 0.052 ± 0.004 kJ/mol. For the same compound, the excess molar enthalpy (308.15 K, 5130 kPa, x2 = 0.9721) was 0.026 ± 0.004 kJ/mol.
